According to US20240279214A1, “ALPHA4 BETA7 INEGRIN ANTAGONISTS AND USES THEREOF” (XinThera, Inc., priority 2022, published 2024):

Molecular target: T1, a4b1 integrin interaction with VCAM-1 (Homo sapiens, UniProt P05556+P13612)
T1 construct: capture of a4b1 integrin expressing cells Jurkat; endogenous in cells; host or cells: Jurkat
Test: a4b1 Cell Capture Assay (Jurkat cells on VCAM-1 Fc coated plates)
Format: cell-based
Conditions: 50% human serum, 1 mM MgCl2, 1 hour incubation, CellTiter-Glo luminescence
Method: The potency of inhibitors in preventing a4b1 integrin interaction with VCAM-1 was measured by monitoring the capture of a4b1 integrin expressing cells Jurkat on recombinant human VCAM-1 Fc chimera protein-coated plates. The protein was a fusion between human VCAM-1 (Phe25-Glu698) Accession #P19320, Accession #AAY82472) and human IgG1 (Pro100-Lys330)] (R&D Systems, Catalog #862-VC). 96-well plates (Thermofisher, Catalog #136102) were coated with the recombinant protein by dispensing 100 μL of 0.25 μg/mL per well. After a quick spin to settle down the coating solution using plate centrifuge, plates were incubated overnight at 4° C. in a moisture chamber. On Day 2, the plates were washed with PBS using a Bluecatbio Blue®Washer (GentleSpin wash, 3 cycles, pressure=1, volume 150 uL). Blocking solution (1.0% BSA in PBS, Sigma, Catalog #A7979) was then added at 200 uL/well, and the plates were quickly spun to settle down blocking buffer and incubated in cell culture incubator at 37° C. and 5% CO2 for 1 hour. The plates were then washed with 0.1% BSA in PBS using a Bluecatbio Blue®Washer (GentleSpin wash, 3 cycles, pressure=1, volume 150 uL). Jurkat cells suspended in assay medium (1 mM MgCl2 25 mM HEPES and 50% human serum, Sigma, Catalog #H4522) at a density of 0.5×10^6 cells/mL were added at 100 uL/well. Each compound evaluated was prepared as a DMSO stock solution. Test compounds were evaluated with a 9-point serial dilution curve and were added to the plates using a Tecan D300e Digital dispenser. Each titration curves were performed in triplicate on the same plate, and most of compounds were retested in different dates multiple times. The plates were shaken at 300 rpm on orbital plate shaker for 3 minutes to mix the cells and compounds, quickly spun to settle the cells and solution, and incubated in cell culture incubator at 37° C. and 5% CO2. After 1 hour incubation, the unbound cells were washed away with RPMI1640 medium supplemented with 1 mM MgCl2 and 1% BSA) (wash buffer) using a Bluecatbio Blue®Washer (MagbeadsSpin wash, 1 cycle, pressure 1, volume=150 uL). After wash buffer removal, A mixture of wash buffer/CellTiter-Glo® Reagent (Pormega, catalog #G7573) at 1:1 (V/V) was added at volume of 100 uL to each well. The plates were placed in a chamber at 25° C. and incubated for 30 minutes. Luminescence was recorded using a Envision plate reader 2105 according to CellTiter-Glo protocol.
The mean luminescence signals from negative control wells without VCAM-1 coating and compound treatment (cells only) was defined as 100% binding inhibition, and the mean luminescence signals from positive control wells with VCAM-1 coating but without compound treatment (VCAM-1 and cells only) was defined as 0% binding inhibition. The luminescence signals from other compound treated wells were normalized in percentage scale accordingly. The normalized mean % inhibition data were plotted against logarithmic compound concentration in nanomolar and were fitted with 4-parameter logistic model to obtain IC50 for each compound.

T1 sequence (P13612 34-1032): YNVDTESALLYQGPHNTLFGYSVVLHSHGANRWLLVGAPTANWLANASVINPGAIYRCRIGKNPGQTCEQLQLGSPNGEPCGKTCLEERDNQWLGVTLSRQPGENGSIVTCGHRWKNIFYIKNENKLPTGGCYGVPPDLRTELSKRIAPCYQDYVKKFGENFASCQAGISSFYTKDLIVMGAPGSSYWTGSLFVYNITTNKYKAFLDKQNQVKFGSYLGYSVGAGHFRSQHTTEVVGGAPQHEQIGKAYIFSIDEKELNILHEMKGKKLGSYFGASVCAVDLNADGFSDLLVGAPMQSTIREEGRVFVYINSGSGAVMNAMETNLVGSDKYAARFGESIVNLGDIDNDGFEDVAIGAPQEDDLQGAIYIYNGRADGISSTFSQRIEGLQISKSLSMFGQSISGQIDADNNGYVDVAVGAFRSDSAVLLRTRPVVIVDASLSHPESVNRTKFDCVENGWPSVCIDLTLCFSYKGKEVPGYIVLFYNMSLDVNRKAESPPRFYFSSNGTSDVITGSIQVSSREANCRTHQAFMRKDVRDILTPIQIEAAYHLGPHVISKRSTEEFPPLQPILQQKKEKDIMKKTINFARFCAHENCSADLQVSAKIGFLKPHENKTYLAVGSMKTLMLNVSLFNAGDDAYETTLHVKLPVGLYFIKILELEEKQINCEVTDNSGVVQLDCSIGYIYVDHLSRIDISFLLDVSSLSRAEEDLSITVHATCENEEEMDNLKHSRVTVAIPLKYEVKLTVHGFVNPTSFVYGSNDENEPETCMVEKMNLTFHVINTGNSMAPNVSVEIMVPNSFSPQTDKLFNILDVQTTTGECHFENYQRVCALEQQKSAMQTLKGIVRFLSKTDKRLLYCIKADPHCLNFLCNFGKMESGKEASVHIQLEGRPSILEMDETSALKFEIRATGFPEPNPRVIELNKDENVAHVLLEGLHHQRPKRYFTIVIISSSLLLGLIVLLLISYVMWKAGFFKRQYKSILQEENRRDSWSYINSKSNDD
T1 sequence (P05556 21-798): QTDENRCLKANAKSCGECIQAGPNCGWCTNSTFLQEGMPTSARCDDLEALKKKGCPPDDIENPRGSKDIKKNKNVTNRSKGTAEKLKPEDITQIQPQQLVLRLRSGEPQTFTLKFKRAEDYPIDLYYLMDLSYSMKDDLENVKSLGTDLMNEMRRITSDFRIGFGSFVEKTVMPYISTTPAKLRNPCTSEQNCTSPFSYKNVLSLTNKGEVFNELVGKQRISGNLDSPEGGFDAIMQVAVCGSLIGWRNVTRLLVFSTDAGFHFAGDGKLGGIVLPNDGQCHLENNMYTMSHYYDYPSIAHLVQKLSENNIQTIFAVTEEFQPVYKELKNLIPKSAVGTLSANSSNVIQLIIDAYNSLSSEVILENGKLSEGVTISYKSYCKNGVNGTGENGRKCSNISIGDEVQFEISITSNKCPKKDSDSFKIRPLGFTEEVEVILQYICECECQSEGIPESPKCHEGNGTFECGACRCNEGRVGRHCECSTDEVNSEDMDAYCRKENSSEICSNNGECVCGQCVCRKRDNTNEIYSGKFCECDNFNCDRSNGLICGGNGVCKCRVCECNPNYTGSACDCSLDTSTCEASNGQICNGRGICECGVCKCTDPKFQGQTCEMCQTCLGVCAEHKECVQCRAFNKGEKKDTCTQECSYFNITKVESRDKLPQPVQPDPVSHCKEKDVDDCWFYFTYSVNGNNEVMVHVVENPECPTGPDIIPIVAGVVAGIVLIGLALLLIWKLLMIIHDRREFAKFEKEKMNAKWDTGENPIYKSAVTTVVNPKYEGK

| EC50 | Structure (SMILES) |
| --- | --- |
| 880 nM | Cc1cccc2c1-c1cc(c(F)c(C(F)(F)F)c1)[C@H](CC(=O)O)NC(=O)[C@@H](n1cc(CCN3CC(F)C3)c(C(F)(F)F)cc1=O)c1cc(Cl)cc(c1)O2 (relative stereo) [Example 15, [(14R*,17S)-11-chloro-19-fluoro-14-{5-[2-(3-fluoroazetidin-1-yl)ethyl]-2-oxo-4-(trifluoromethyl)pyridin-1-yl}-3-methyl-15-oxo-20-(trifluoromethyl)-8-oxa-16-azatetracyclo[16.3.1.1^{9,13}.0^{2,7}]tricosa-1(22),2(7),3,5,9,11,13(23),18,20-nonaen-17-yl]acetic acid] |
| 689 nM | Cc1cc(C)c2c(c1)Oc1cccc(c1)[C@H](n1cc(CCCN(C)C)c(C(F)(F)F)cc1=O)C(=O)N[C@@H](CC(=O)O)c1cn-2nc1C(F)(F)F (relative stereo) [Example 18, [(13S,16R*)-16-{5-[3-(dimethylamino)propyl]-2-oxo-4-(trifluoromethyl)pyridin-1-yl}-5,7-dimethyl-15-oxo-11-(trifluoromethyl)-2-oxa-9,10,14-triazatetracyclo[15.3.1.1^{9,12}.0^{3,8}]docosa-1(20),3(8),4,6,10,12(22),17(21),18-octaen-13-yl]acetic acid] |
| 4580 nM | Cc1cc(Cl)cc2c1-c1cc(c(F)c(C(F)(F)F)c1)[C@H](CC(=O)O)NC(=O)[C@@H](n1cc(CCN3CC(F)C3)c(C(F)(F)F)cc1=O)c1cccc(c1)O2 (single isomer, unassigned) [Example 11] |

Continued, compound first:

| Structure (SMILES) | EC50 |
| --- | --- |
| Cc1cc2cc(c1F)[C@H](CC(=O)O)NC(=O)[C@@H](n1cc(CCN3CC(F)C3)c(C(F)(F)F)cc1=O)c1cccc(c1)Oc1cccc(C)c1-2 (relative stereo) [Example 1, rel-2-((5S,8S)-1^4-fluoro-5-(5-(2-(3-fluoroazetidin-1-yl)ethyl)-2-oxo-4-(trifluoromethyl)pyridin-1(2H)-yl)-1^5,2^6-dimethyl-6-oxo-3-oxa-7-aza-1,4(1,3),2(1,2)-tribenzenacyclooctaphane-8-yl)acetic acid] | 2080 nM |
| Cc1cc2cc(c1F)[C@H](CC(=O)O)NC(=O)[C@@H](n1cc(CCN3CC(F)C3)c(C(F)(F)F)cc1=O)c1cc(ccc1F)Oc1cccc(C)c1-2 (relative stereo) [Example 7, [(14R*,17S)-12,19-difluoro-14-{5-[2-(3-fluoroazetidin-1-yl)ethyl]-2-oxo-4-(trifluoromethyl)pyridin-1-yl}-3,20-dimethyl-15-oxo-8-oxa-16-azatetracyclo[16.3.1.1^{9,13}.0^{2,7}]tricosa-1(21),2(7),3,5,9(23),10,12,18(22),19-nonaen-17-yl]acetic acid] | 61.5 nM |
| Cc1cc(C2CC2)cc2c1-c1cc(c(F)c(C(F)(F)F)c1)[C@H](CC(=O)O)NC(=O)[C@@H](n1cc(CCN3CC(F)C3)c(C(F)(F)F)cc1=O)c1cccc(c1)O2 (relative stereo) [Example 10, [(14R*,17S)-5-cyclopropyl-19-fluoro-14-{5-[2-(3-fluoroazetidin-1-yl)ethyl]-2-oxo-4-(trifluoromethyl)pyridin-1-yl}-3-methyl-15-oxo-20-(trifluoromethyl)-8-oxa-16-azatetracyclo[16.3.1.1^{9,13}.0^{2,7}]tricosa-1(21),2(7),3,5,9,11,13(23),18(22),19-nonaen-17-yl]acetic acid] | 11900 nM |
| Cc1cc2cc(c1F)[C@H](CC(=O)O)NC(=O)[C@@H](n1cc(CCN3CC(F)C3)c(C(F)(F)F)cc1=O)c1cc(Cl)cc(c1)Oc1cccc(C)c1-2 (single isomer, unassigned) [Example 3] | 359 nM |
